The results in this text go back to patent US11667651B2, “Aminopyridine derivatives as phosphatidylinositol phosphate kinase inhibitors” (HiberCell, Inc., priority 2017, dated 2023).

One experiment concerns the target T1, PIP4K2B (Homo sapiens, UniProt P78356).
T1 construct: made in house; host or cells: E. coli
T1 sequence (P78356 1-416): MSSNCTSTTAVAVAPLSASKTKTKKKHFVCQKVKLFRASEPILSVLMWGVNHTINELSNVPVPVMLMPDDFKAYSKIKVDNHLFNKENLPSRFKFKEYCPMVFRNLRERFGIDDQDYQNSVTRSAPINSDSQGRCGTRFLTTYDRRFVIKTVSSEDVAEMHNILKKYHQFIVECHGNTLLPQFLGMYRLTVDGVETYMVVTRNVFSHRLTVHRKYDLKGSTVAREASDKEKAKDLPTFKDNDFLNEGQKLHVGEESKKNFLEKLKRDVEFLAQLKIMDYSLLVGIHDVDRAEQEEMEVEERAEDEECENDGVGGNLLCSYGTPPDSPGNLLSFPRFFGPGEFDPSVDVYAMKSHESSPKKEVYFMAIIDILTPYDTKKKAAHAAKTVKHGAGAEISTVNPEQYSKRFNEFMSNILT
The experiment is described as follows: Trans-FI P kinase assay PIP4K2B (Table 4). The experiment is classed as biochemical. The following applies: compounds listed under IC50 bins; read-out: Trans-FI P kinase assays: PIP4K2B IC50. The method, boiled down: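 Transcreener FI detection (Ex 584/Em 623) of GDP, converted via calibration curve, gives IC50 from residual activity versus log concentration (highest 4.8 μM). Reaction: 80 μM PI5P plus DOPE carrier, 100 μM GTP, 5 nM GST-tagged enzyme, pH 7.3 HEPES with MgCl2 and 5% DMSO, 2 h after 1 h enzyme-compound preincubation at 27° C.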

Another experiment concerns the target T2, PIP4K2A (Homo sapiens, UniProt P48426).
T2 sequence (P48426 1-406): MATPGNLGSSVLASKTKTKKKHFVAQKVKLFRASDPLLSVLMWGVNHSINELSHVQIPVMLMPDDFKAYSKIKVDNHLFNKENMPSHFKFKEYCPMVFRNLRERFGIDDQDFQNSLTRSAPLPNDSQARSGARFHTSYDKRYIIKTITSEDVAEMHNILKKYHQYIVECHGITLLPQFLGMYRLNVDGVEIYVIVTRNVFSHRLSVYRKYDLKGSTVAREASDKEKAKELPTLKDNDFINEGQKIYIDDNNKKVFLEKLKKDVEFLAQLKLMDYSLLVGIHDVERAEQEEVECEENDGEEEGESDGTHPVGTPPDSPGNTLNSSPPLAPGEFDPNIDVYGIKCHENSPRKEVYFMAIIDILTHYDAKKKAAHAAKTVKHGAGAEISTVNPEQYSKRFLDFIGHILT
The experiment can be described thus: ADP-glo kinase assay PIP4K 2A (Table 3). The following applies: compounds listed under IC50 bins. The experiment is classed as biochemical. Details: made in house; host or cells: E. coli. As to the method: Dilution series of the compounds were prepared in DMSO at 100 times the final assay concentration (n1=n0/3 in 10 points). The compounds were further diluted to three times the assay concentration in assay buffer (20 mM MOPS pH 7.2, 25 mM magnesium chloride, 0.005% Tween 20). 6 μL of the diluted compounds were added to a 384 well assay plate followed by 9 μL of a mix consisting of 4 nM PIP4K2A (full length protein, SignalChem) and 100 μM PI(5)P diC8 (Tebu-Bio). Enzyme and compounds were pre-incubated at room temperature for 15 minutes.
Then 3 μL of a solution containing 60 μM ATP (Promega) in assay buffer was added to the wells containing compound and enzyme and mixing was performed by pipetting several times. The reaction was incubated at room temperature for 1 h. Then 18 μL of ADP-Glo™ Reagent (Promega) was added to stop the kinase reaction and deplete the unconsumed ATP, mixing was performed by pipetting several times. The plate was incubated at room temperature for 40 minutes before addition of 36 μL of Kinase Detection Reagent (Promega) to convert ADP to ATP and introduce luciferase and luciferin to detect ATP. The reaction was incubated at room temperature for 40 minutes before the luminescence was measured in a in a Victor 3V 1420 multilabel counter (Perkin Elmer).
Percent inhibition of the compounds as compared to dimethyl sulfoxide treated control samples was calculated. Compound concentration versus percent inhibition were fitted to generate IC50 values. […]

Each structure is given as a SMILES string. Some results are limits rather than exact numbers.

Broadly, the IC50 is the concentration that gives 50% inhibition. With `O=C(Nc1cncc(Nc2ccc(-c3ccc(N4CCCC4=O)cc3)cn2)c1)N1CCOC(C2CC2)C1` (stereo not shown) [Example 262, 2-cyclopropyl-N-(5-((5-(4-(2-oxopyrrolidin-1-yl)phenyl)pyridin-2-yl)amino)pyridin-3-yl)morpholine-4-carboxamide], the results for the IC50 on PIP4K2B and against PIP4K2A were 0.01 to 0.1 µM and 0.1 to 1 µM, respectively.

As to `Nc1nc(Nc2cnc3c(c2)N2C(=O)C4(CC4)C[C@H]2CO3)ncc1-c1ccc(N2CCCC2=O)cc1` [Example 204, (S)-2′-((4-amino-5-(4-(2-oxopyrrolidin-1-yl)phenyl)pyrimidin-2-yl)amino)-6a′,7′-dihydro-6′H,9′H-spiro[cyclopropane-1,8′-pyrido[2,3-b]pyrrolo[1,2-d][1,4]oxazin]-9′-one], the IC50 on PIP4K2B and at PIP4K2A was 0.001 to 0.01 µM in each case.

Take `Cc1nc(Nc2cnc3c(c2)N2C(=O)C4(CC4)C[C@H]2CO3)ncc1-c1ccc(N2CCCC2=O)cc1` [Example 201, (S)-2′-((4-methyl-5-(4-(2-oxopyrrolidin-1-yl)phenyl)pyrimidin-2-yl)amino)-6a′,7′-dihydro-6′H,9′H-spiro[cyclopropane-1,8′-pyrido[2,3-b]pyrrolo[1,2-d][1,4]oxazin]-9′-one]: the IC50 at PIP4K2B and against PIP4K2A was 0.001 to 0.01 µM each time.

For the compound `Cc1nc(Nc2cnc3c(c2)N2C(=O)CC[C@H]2CO3)ncc1-c1ccc(N2CCCC2=O)cc1` [Example 196, (S)-2-((4-methyl-5-(4-(2-oxopyrrolidin-1-yl)phenyl)pyrimidin-2-yl)amino)-6,6a,7,8-tetrahydro-9H-pyrido[2,3-b]pyrrolo[1,2-d][1,4]oxazin-9-one], the IC50 lay in the range of 0.001 to 0.01 µM on PIP4K2B and 0.01 to 0.1 µM on PIP4K2A.

For the compound `CN(C)CCCC(=O)Nc1ccc(C(=O)Nc2cncc(Nc3ccc(-c4ccc(N5CCCC5=O)cc4)cn3)c2)cc1` [Example 168, 4-(4-(dimethylamino)butanamido)-N-(5-((5-(4-(2-oxopyrrolidin-1-yl)phenyl)pyridin-2-yl)amino)pyridin-3-yl)benzamide], the IC50 on PIP4K2B and against PIP4K2A was 0.01 to 0.1 µM in each case.

`CN(C)C/C=C/C(=O)NCC(=O)Nc1ccc(CN2CCN(c3cncc(Nc4ccc(-c5ccc(N6CCCC6=O)cc5)cn4)c3)C2=O)cc1` [Example 172, (E)-4-(dimethylamino)-N-(2-oxo-2-((4-((2-oxo-3-(5-((5-(4-(2-oxopyrrolidin-1-yl)phenyl)pyridin-2-yl)amino)pyridin-3-yl)imidazolidin-1-yl)methyl)phenyl)amino)ethyl)but-2-enamide]: the IC50 is 0.01 to 0.1 µM at PIP4K2B and 0.001 to 0.01 µM against PIP4K2A.

Take `O=C1CCCN1c1ccc(-c2cnc(Nc3cnc4c(c3)N3C(=O)CC[C@H]3CO4)nc2)cc1F` [Example 187, (S)-2-((5-(3-fluoro-4-(2-oxopyrrolidin-1-yl)phenyl)pyrimidin-2-yl)amino)-6,6a,7,8-tetrahydro-9H-pyrido[2,3-b]pyrrolo[1,2-d][1,4]oxazin-9-one]: the IC50 at PIP4K2B and against PIP4K2A was 0.01 to 0.1 µM in each case.

For the compound `COc1nc(Nc2cnc3c(c2)N2C(=O)C4(CC4)C[C@H]2CO3)ncc1-c1ccc(N2CCCC2=O)cc1` [Example 200, (S)-2′-((4-methoxy-5-(4-(2-oxopyrrolidin-1-yl)phenyl)pyrimidin-2-yl)amino)-6a′,7′-dihydro-6′H,9′H-spiro[cyclopropane-1,8′-pyrido[2,3-b]pyrrolo[1,2-d][1,4]oxazin]-9′-one], the figures for the IC50 on PIP4K2B and against PIP4K2A were 0.001 to 0.01 µM and ≤ 0.001 µM, respectively.

In the case of `O=C1CCCN1c1ccc(-c2cnc(Nc3cnc4c(c3)N3C(=O)C5(CC5)C[C@H]3CO4)nc2)cc1` [Example 205, (S)-2′-((5-(4-(2-oxopyrrolidin-1-yl)phenyl)pyrimidin-2-yl)amino)-6a′,7′-dihydro-6′H,9′H-spiro[cyclopropane-1,8′-pyrido[2,3-b]pyrrolo[1,2-d][1,4]oxazin]-9′-one], the IC50 at PIP4K2B and against PIP4K2A was 0.001 to 0.01 µM in each case.

Regarding `C[C@@]1(O)C[C@H]2COc3ncc(Nc4ccc(-c5ccc(N6CCCC6=O)c(F)c5)cn4)cc3N2C1=O` [Example 270, (6aS,8R)-2-((5-(3-fluoro-4-(2-oxopyrrolidin-1-yl)phenyl)pyridin-2-yl)amino)-8-hydroxy-8-methyl-6,6a,7,8-tetrahydro-9H-pyrido[2,3-b]pyrrolo[1,2-d][1,4]oxazin-9-one], the IC50 at PIP4K2B and against PIP4K2A was 0.01 to 0.1 µM in each case.

Regarding `Cc1cc(N2CCCC2=O)ccc1-c1ccc(Nc2cnc3c(c2)N2C(=O)C4(CC4)C[C@H]2CO3)nc1` [Example 208, (S)-2′-((5-(2-methyl-4-(2-oxopyrrolidin-1-yl)phenyl)pyridin-2-yl)amino)-6a′,7′-dihydro-6′H,9′H-spiro[cyclopropane-1,8′-pyrido[2,3-b]pyrrolo[1,2-d][1,4]oxazin]-9′-one], the IC50 on PIP4K2B and at PIP4K2A was 0.01 to 0.1 µM in each case.

As for `COc1cc(C(=O)Nc2cncc(Nc3ccc(-c4ccc(N5CCCC5=O)cc4)cn3)c2)c2[nH]cnc2c1` [Example 253, 5-methoxy-N-(5-((5-(4-(2-oxopyrrolidin-1-yl)phenyl)pyridin-2-yl)amino)pyridin-3-yl)-1H-benzo[d]imidazole-7-carboxamide], the IC50 on PIP4K2B and on PIP4K2A was 0.01 to 0.1 µM each time.

`CC(C)c1nc(Nc2cnc3c(c2)N2C(=O)C4(CC4)C[C@H]2CO3)ncc1-c1ccc(N2CCCC2=O)cc1` [Example 216, (S)-2′-((4-isopropyl-5-(4-(2-oxopyrrolidin-1-yl)phenyl)pyrimidin-2-yl)amino)-6a′,7′-dihydro-6′H,9′H-spiro[cyclopropane-1,8′-pyrido[2,3-b]pyrrolo[1,2-d][1,4]oxazin]-9′-one]: the IC50 is 0.001 to 0.01 µM at PIP4K2B and ≤ 0.001 µM at PIP4K2A.

Regarding `O=C1CCCN1c1ccc(-c2ccc(Nc3cnc4c(c3)N3C(=O)OC[C@H]3CO4)nc2)cc1F` [Example 295, (R)-8-((5-(3-fluoro-4-(2-oxopyrrolidin-1-yl)phenyl)pyridin-2-yl)amino)-3a,4-dihydro-1H,3H-oxazolo[3,4-d]pyrido[2,3-b][1,4]oxazin-1-one], the IC50 on PIP4K2B fell in the range of 0.01 to 0.1 µM; on PIP4K2A it was 0.001 to 0.01 µM.

For the compound `CC(C)c1cc(Nc2cnc3c(c2)N2C(=O)CC[C@H]2CO3)ncc1-c1ccc(N2CCCC2=O)c(F)c1` [Example 181, (S)-2-((5-(3-fluoro-4-(2-oxopyrrolidin-1-yl)phenyl)-4-isopropylpyridin-2-yl)amino)-6,6a,7,8-tetrahydro-9H-pyrido[2,3-b]pyrrolo[1,2-d][1,4]oxazin-9-one], the values for the half-maximal inhibitory concentration (IC50) at PIP4K2B and at PIP4K2A were 0.01 to 0.1 µM and 0.001 to 0.01 µM, respectively.

As to `CN(C)C/C=C/C(=O)Nc1ccc(C(=O)Nc2cncc(Nc3ccc(-c4ccc(N5CCCC5=O)cc4)cn3)c2)cc1` [Example 167, (E)-4-(4-(dimethylamino)but-2-enamido)-N-(5-((5-(4-(2-oxopyrrolidin-1-yl)phenyl)pyridin-2-yl)amino)pyridin-3-yl)benzamide], the IC50 on PIP4K2B and against PIP4K2A was 0.01 to 0.1 µM throughout.

Turning to `CC(C)c1cc(Nc2cnc3c(c2)N2C(=O)C4(CC4)C[C@H]2CO3)ncc1-c1ccc(N2CCCC2=O)cc1` [Example 210, (S)-2′-((4-isopropyl-5-(4-(2-oxopyrrolidin-1-yl)phenyl)pyridin-2-yl)amino)-6a′,7′-dihydro-6′H,9′H-spiro[cyclopropane-1,8′-pyrido[2,3-b]pyrrolo[1,2-d][1,4]oxazin]-9′-one], the IC50 on PIP4K2B is 0.001 to 0.01 µM; against PIP4K2A, ≤ 0.001 µM.
